Assay results from the supplement of paper PMC10627819.

How the values were obtained:
B. subtilis 168 [1] = experiment: fitness (endpoint OD595 vs no drug) (fraction); higher = more growth
Method in brief: (§1)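 With the first reading as background, OD595 was measured every 30 min for 14 h in 384-well plates kept at 37 °C and inoculated at OD595 0.01. TSB, LB Lennox or CY was the medium. Fitness is the optical density at the transition into stationary phase divided by the robust mean of no-drug control wells, with a cap of 1.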

S. aureus DSM 20231 [2] = experiment: as above
Method in brief: as §1

S. aureus Newman [3] = experiment: as above
Method in brief: as §1

B. subtilis 168 [4] = experiment: Bliss interaction score (quartile over a dose matrix) (fitness difference); higher = more antagonism (negative = synergy)
Method in brief: (§2)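 Combination data were used to infer fitness under each single drug. Fitness is the OD595 at entry into stationary phase divided by the robust mean of the plate's no-drug wells, with a cap of 1. The Bliss score is the observed minus the expected product fitness, summarised by quartiles over technical, biological and donor/recipient replicates.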

S. aureus DSM 20231 [5] = experiment: as above
Method in brief: as §2

S. aureus Newman [6] = experiment: as above
Method in brief: as §2

S. pneumoniae D39V = experiment: as above
Method in brief: as §2
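Throughout, for Bliss interaction score (quartile over a dose matrix): first quartile when negative (synergy) and third quartile when positive (antagonism).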

CC[C@H]1OC(=O)[C@H](C)[C@@H](O[C@H]2C[C@@](C)(OC)[C@@H](O)[C@H](C)O2)[C@H](C)[C@@H](O[C@@H]2O[C@H](C)C[C@H](N(C)C)[C@H]2O)[C@](C)(O)C[C@@H](C)CN(C)[C@H](C)[C@@H](O)[C@]1(C)O [Azithromycin] + Cc1cc(NS(=O)(=O)c2ccc(N)cc2)no1 [Sulfamethoxazol]
fitness
Details | partner 1 µg/mL | partner 2 µg/mL | partner 4 µg/mL
B. subtilis 168 [1], first compound 0.25 µg/mL | 0.901 | 0.89 | 0.895
B. subtilis 168 [1], first compound 0.5 µg/mL | 0.871 | 0.834 | 0.849
S. aureus DSM 20231 [2], first compound 0.125 µg/mL | 0.911 | 0.85 | 0.913
S. aureus DSM 20231 [2], first compound 0.25 µg/mL | 0.85 | 0.839 | 0.869
S. aureus DSM 20231 [2], first compound 0.5 µg/mL | – | 0.545 | 0.516
S. aureus Newman [3], first compound 0.125 µg/mL | 0.849 | 0.88 | 0.86
S. aureus Newman [3], first compound 0.25 µg/mL | 0.85 | 0.869 | 0.837

one replicate
Details | fitness
B. subtilis 168 [1], first compound 0.5 µg/mL, partner 0.5 µg/mL | 0.899
B. subtilis 168 [1], first compound 1 µg/mL, partner 0.5 µg/mL | 0.788
B. subtilis 168 [1], first compound 2 µg/mL, partner 0.5 µg/mL | 0.029
B. subtilis 168 [1], first compound 2 µg/mL, partner 1 µg/mL | 0.105
B. subtilis 168 [1], first compound 2 µg/mL, partner 2 µg/mL | 0.126
S. aureus Newman [3], first compound 0.125 µg/mL, partner 8 µg/mL | 0.895
S. aureus Newman [3], first compound 0.25 µg/mL, partner 8 µg/mL | 0.873
S. aureus Newman [3], first compound 0.5 µg/mL, partner 8 µg/mL | 0.893

Details | Bliss interaction score
B. subtilis 168 [4] | 0.0534
S. aureus DSM 20231 [5] | -0.0683
S. aureus Newman [6] | -0.0991
S. pneumoniae D39V | 0.071

CC[C@H]1OC(=O)[C@H](C)[C@@H](O[C@H]2C[C@@](C)(OC)[C@@H](O)[C@H](C)O2)[C@H](C)[C@@H](O[C@@H]2O[C@H](C)C[C@H](N(C)C)[C@H]2O)[C@](C)(O)C[C@@H](C)CN(C)[C@H](C)[C@@H](O)[C@]1(C)O [Azithromycin] + COc1c(N2C[C@@H]3CCCN[C@@H]3C2)c(F)cc2c(=O)c(C(=O)O)cn(C3CC3)c12 [Moxifloxacin]
fitness
Details | first compound 0.125 µg/mL | first compound 0.25 µg/mL | first compound 0.5 µg/mL | first compound 1 µg/mL | first compound 2 µg/mL
B. subtilis 168 [1], partner 0.0312 µg/mL | – | – | 0.0678 | 0.0582 | 0.0414
B. subtilis 168 [1], partner 0.0625 µg/mL | – | 0.0511 | 0.0366 | 0.0237 | 0.0289
B. subtilis 168 [1], partner 0.125 µg/mL | – | 0.0301 | 0.0372 | 0.0336 | 0.02
B. subtilis 168 [1], partner 2 µg/mL | – | 0.027 | 0.0186 | 0.0208 | –
B. subtilis 168 [1], partner 4 µg/mL | – | 0.0147 | 0.0272 | 0.0194 | –
B. subtilis 168 [1], partner 8 µg/mL | – | 0.0347 | 0.042 | 0.0214 | –
S. aureus DSM 20231 [2], partner 0.0075 µg/mL | 0.727 | 0.747 | – | – | –
S. aureus DSM 20231 [2], partner 0.015 µg/mL | 0.687 | 0.772 | 0.592 | – | –
S. aureus DSM 20231 [2], partner 0.03 µg/mL | 0.656 | 0.737 | 0.556 | – | –
S. aureus Newman [3], partner 0.0075 µg/mL | 0.717 | 0.723 | – | – | –
S. aureus Newman [3], partner 0.015 µg/mL | 0.666 | – | 0.415 | – | –
S. aureus Newman [3], partner 0.03 µg/mL | – | – | 0.307 | – | –

fitness, S. aureus DSM 20231 [2], one replicate
Details | first compound 0.125 µg/mL | first compound 0.25 µg/mL | first compound 0.5 µg/mL
partner 0.06 µg/mL | 0.633 | 0.623 | 0.587
partner 0.12 µg/mL | 0.528 | 0.559 | 0.452

Details | Bliss interaction score
B. subtilis 168 [4] | 0.0244
S. aureus DSM 20231 [5] | 0.0773
S. aureus Newman [6] | 0.118
S. pneumoniae D39V | 0.0652

CC[C@H]1OC(=O)[C@H](C)[C@@H](O[C@H]2C[C@@](C)(OC)[C@@H](O)[C@H](C)O2)[C@H](C)[C@@H](O[C@@H]2O[C@H](C)C[C@H](N(C)C)[C@H]2O)[C@](C)(O)C[C@@H](C)CN(C)[C@H](C)[C@@H](O)[C@]1(C)O [Azithromycin] + CN[C@@H]1[C@H](O)[C@H](NC)[C@H]2O[C@@]3(O)C(=O)C[C@@H](C)O[C@H]3O[C@@H]2[C@H]1O [Spectinomycin]
fitness
Details | partner 2 µg/mL | partner 4 µg/mL | partner 8 µg/mL | partner 16 µg/mL
B. subtilis 168 [1], first compound 0.25 µg/mL | 0.918 | 0.895 | 0.815 | –
B. subtilis 168 [1], first compound 0.5 µg/mL | 0.849 | 0.816 | – | –
S. aureus DSM 20231 [2], first compound 0.125 µg/mL | – | 0.856 | 0.774 | 0.755
S. aureus DSM 20231 [2], first compound 0.25 µg/mL | – | 0.788 | 0.771 | 0.644
S. aureus Newman [3], first compound 0.125 µg/mL | – | 0.84 | 0.849 | 0.821
S. aureus Newman [3], first compound 0.25 µg/mL | – | 0.818 | 0.812 | 0.689

fitness, one replicate
Details | first compound 0.125 µg/mL | first compound 0.25 µg/mL | first compound 0.5 µg/mL
S. aureus DSM 20231 [2], partner 32 µg/mL | 0.658 | 0.348 | 0.0388
S. aureus DSM 20231 [2], partner 64 µg/mL | 0.0503 | 0.0326 | 0.0093
S. aureus Newman [3], partner 32 µg/mL | 0.401 | 0.165 | 0.0078
S. aureus Newman [3], partner 64 µg/mL | 0.0378 | 0.0151 | 0.003

Details | Bliss interaction score
B. subtilis 168 [4] | -0.0884
S. aureus DSM 20231 [5] | -0.107
S. aureus Newman [6] | -0.124
S. pneumoniae D39V | -0.0642

CC[C@H]1OC(=O)[C@H](C)[C@@H](O[C@H]2C[C@@](C)(OC)[C@@H](O)[C@H](C)O2)[C@H](C)[C@@H](O[C@@H]2O[C@H](C)C[C@H](N(C)C)[C@H]2O)[C@](C)(O)C[C@@H](C)CN(C)[C@H](C)[C@@H](O)[C@]1(C)O [Azithromycin] + CO/N=C(\C(=O)N[C@@H]1C(=O)N2C(C(=O)O)=C(COC(C)=O)CS[C@H]12)c1csc(N)n1 [Cefotaxime]
fitness
Details | first compound 0.125 µg/mL | first compound 0.25 µg/mL | first compound 0.5 µg/mL | first compound 1 µg/mL
B. subtilis 168 [1], partner 0.0625 µg/mL | – | 0.654 | 0.631 | –
B. subtilis 168 [1], partner 0.125 µg/mL | – | 0.456 | 0.456 | 0.21
B. subtilis 168 [1], partner 0.25 µg/mL | – | 0.349 | 0.358 | 0.177
B. subtilis 168 [1], partner 0.5 µg/mL | – | 0.21 | 0.19 | 0.0636
B. subtilis 168 [1], partner 1 µg/mL | – | 0.141 | 0.103 | 0.0233
B. subtilis 168 [1], partner 2 µg/mL | – | 0.111 | 0.0792 | 0.037
S. aureus DSM 20231 [2], partner 0.078 µg/mL | 0.744 | 0.768 | 0.554 | –
S. aureus DSM 20231 [2], partner 0.156 µg/mL | 0.672 | 0.762 | 0.511 | –
S. aureus DSM 20231 [2], partner 0.312 µg/mL | 0.6 | 0.668 | 0.487 | –
S. aureus Newman [3], partner 0.078 µg/mL | 0.722 | 0.754 | 0.549 | –
S. aureus Newman [3], partner 0.156 µg/mL | 0.587 | 0.588 | – | –
S. aureus Newman [3], partner 0.625 µg/mL | – | – | 0.0779 | –
S. aureus Newman [3], partner 1.25 µg/mL | 0.157 | 0.0373 | 0.0342 | –
S. aureus Newman [3], partner 2.5 µg/mL | 0.0341 | 0.0356 | 0.0427 | –

fitness, one replicate
Details | first compound 0.125 µg/mL | first compound 0.25 µg/mL | first compound 0.5 µg/mL | first compound 1 µg/mL | first compound 2 µg/mL
B. subtilis 168 [1], partner 0.00775 µg/mL | – | – | 0.831 | 0.567 | 0.0141
B. subtilis 168 [1], partner 0.0155 µg/mL | – | – | 0.714 | 0.324 | 0.0276
B. subtilis 168 [1], partner 0.031 µg/mL | – | – | 0.516 | 0.153 | 0.0097
S. aureus DSM 20231 [2], partner 0.039 µg/mL | 0.725 | 0.724 | 0.589 | – | –
S. aureus Newman [3], partner 0.039 µg/mL | 0.792 | 0.896 | 0.786 | – | –
S. aureus Newman [3], partner 0.312 µg/mL | 0.269 | 0.241 | 0.0227 | – | –

Details | Bliss interaction score
B. subtilis 168 [4] | -0.053
S. aureus DSM 20231 [5] | 0.0492
S. aureus Newman [6] | -0.0321
S. pneumoniae D39V | 0.0552
